We go through three molecules from patent US20260250272A1, “N-SUBSTITUTED QUINOLINONE COMPOUND, PREPARATION METHOD THEREFOR AND USE THEREOF” (VIGONVITA LIFE SCIENCES CO., LTD., priority 2022, published 2026).

Converted amounts (≈) assume the structure as drawn.

The nature of data set [1]: Oil solubility test in benzyl benzoate (HPLC). Format: physicochemical. Particulars: organic solvent or mixture, thermodynamic from solid, 25° C., shaken 2 h. How it is done:
The solubility test was performed by quantitative analysis using an external standard method of high-performance liquid chromatography.
Reference sample solution: 10 mg of reference sample was weighed, placed in a 20 mL volumetric flask, diluted to the scale with 80% acetonitrile, and shaken uniformly.
Test sample solution: an appropriate amount of sample was dissolved in benzyl benzoate to obtain a saturated solution. The mixture was placed in a shaker and shaken at 25° C. and 800 rpm for 2 h. The sample solution was filtered, and 100 μL of filtrate was added to a 10 mL volumetric flask, diluted to the scale with 80% acetonitrile, and shaken uniformly.

The target in data set [2] is human recombinant D2L receptor (Homo sapiens, UniProt P14416). Kind of data set: Antagonistic activity against the D2L receptor (LANCE Ultra cAMP, CHO cells). (TR-FRET usually uses a lanthanide donor and a delayed reading to cut background.)
Procedure: The antagonistic effect of the compounds on the D2L receptor in the CHO cells expressing the human recombinant D2L receptor was assayed by using the LANCE® Ultra cAMP kit (PerkinElmer, USA). […] Amisulpride was used as a positive control.
The target of a further data set is T1, hERG potassium channel (Homo sapiens, UniProt Q12809).
T1 construct: expressed in transfected cells
As to the kind of experiment: hERG potassium channel block, automatic patch clamp (QPatch, CHO cells). Particulars: CHO cells stably expressing hERG, highest concentration 20 μM; read-out: hERG inhibition (IC50). Format: cell-based. How it is done: The hERG potassium channel block experiment was performed using the full-automatic patch-clamp technique (QPatch^HTX, Sophion, Stockholm, Sweden). The cell line is CHO cells stably expressing the hERG potassium channel. The compounds were tested at the highest test concentration of 20 μM in 3-fold dilution (n=3).
In general terms: hERG is a cardiac potassium channel; its block is linked to QT prolongation.

Data set [3] deals with T2, human recombinant 5-HT2A receptor (Homo sapiens, UniProt P28223).
T2 construct: expressed in transfected cells; host or cells: CHO (5-HT2A-CHO)
As to the kind of experiment: Antagonistic activity against the 5-HT2A receptor (IP-One-Gq, CHO cells). Format: cell-based. The settings on record: serotonin stimulation. How it is done:
The antagonistic effect of the compounds on the 5-HT2A receptor in the CHO cells expressing the human recombinant 5-HT2A receptor was assayed by using the IP-One-Gq kit (Cisbio). […] Risperidone was used as a positive control.

A further data set addresses human D3 receptor (Homo sapiens, UniProt P35462). As to the kind of experiment: cell-based.
Data set [4] has as its target T3, human recombinant 5-HT1A receptor (Homo sapiens, UniProt P08908).
T3 construct: expressed in transfected cells; host or cells: HEK293
T3 sequence (P08908 1-422): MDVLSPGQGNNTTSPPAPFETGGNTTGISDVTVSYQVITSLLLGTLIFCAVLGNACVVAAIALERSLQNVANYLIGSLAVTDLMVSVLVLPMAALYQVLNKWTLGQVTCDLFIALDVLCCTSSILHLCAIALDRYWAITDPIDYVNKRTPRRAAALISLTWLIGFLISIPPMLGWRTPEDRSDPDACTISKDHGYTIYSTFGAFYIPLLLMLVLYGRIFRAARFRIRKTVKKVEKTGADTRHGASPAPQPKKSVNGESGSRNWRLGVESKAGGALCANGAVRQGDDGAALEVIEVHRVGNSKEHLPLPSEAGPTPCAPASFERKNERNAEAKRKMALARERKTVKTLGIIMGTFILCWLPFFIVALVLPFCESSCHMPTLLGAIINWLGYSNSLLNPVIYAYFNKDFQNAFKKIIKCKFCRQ
As to the kind of experiment: Agonistic activity against the 5-HT1A receptor (LANCE cAMP, HEK293 cells). Type of data set: cell-based. Particulars: inhibition of cAMP production.

The target of the next data set is T4, human SERT (Homo sapiens, UniProt P31645).
T4 construct: expressed in transfected cells; host or cells: HEK-293 (HEK-hSERT)
As to the kind of experiment: cell-based. Particulars: HEK-hSERT cells; read-out: Inhibitory activity against 5-HT transporter (IC50). Here is the method:
The inhibitory effect of the compounds on the 5-HT transporter in the HEK-293 cells expressing human SERT was evaluated by using the neurotransmitter transporter uptake assay kit (Molecular Devices).

Data set [5] can be described thus: Pharmacokinetic experiment in rats, intramuscular injection. The settings on record: SD male rats, 43.3 mmol/kg, benzyl benzoate vehicle, up to day 36. Type of data set: in vivo. Here is the method:
The pharmacokinetic experiment in rats was performed on compounds 2, 3, 5, 6, 7, and 8 (non-fasting SD male rats, administered intramuscularly, at a dose of 43.3 mmol/kg, n=3). The vehicle was benzyl benzoate, the injection site was the thigh muscle of the hind limb, and about 0.3 mL of blood samples were collected from the jugular vein of rats at blood collection time points of day 0.25, day 2, day 4, day 6, day 8, day 15, day 22, day 29, and day 36. The collected blood was stored under ice-cold conditions, plasma was rapidly isolated by centrifugation and the precipitant was added, and the concentration of compound 1 (active metabolite) was quantitatively determined by LCMS.

Data set [6] can be described thus: Human liver microsome assay. Format: in vitro ADME. Here is the method: Preparation of magnesium-potassium buffer solution: a 100 mM potassium buffer and 5 mM MgCl2 were preheated together to obtain a magnesium-potassium buffer at a pH of 7.41. Preparation of 0.5 mM working solution: a 10 mM compound stock solution was added to 95 μL of acetonitrile. Preparation of 1.5 μM working solution containing microsomes (0.75 mg/mL): 1.5 μL of the 0.5 mM working solution and 18.75 μL of 20 mg/mL human liver microsome solution were added to 479.75 μL of the magnesium-potassium buffer. Preparation of NADPH stock solution (6 mM, 5 mg/mL): NADPH was dissolved in the magnesium-potassium buffer. 30 μL of 1.5 μM working solution containing 0.75 mg/mL human liver microsomes were added to each of the wells of a 96-well plate, and the plate was pre-incubated at 37° C. for 5 min. For a sample at 0 min, 150 μL of acetonitrile solution containing an internal standard was added, and then 15 μL of NADPH stock solution (6 mM) was added to initiate the reaction. For samples at other time points, 15 μL of NADPH stock solution (6 mM) was directly added to initiate the reaction. Final content of components: compound (1 μM), human liver microsomes (0.5 mg/mL), and NADPH (2 mM). 150 μL of cold stop buffer containing an internal standard was added at time points of 5 min, 15 min, 30 min, and 45 min to stop the sample reaction, the plate was centrifuged at 600 rpm for 10 min and then at 6000 rpm for 15 min, and the supernatant was taken for LC-MS/MS analysis.
A standard curve of the ln residual rate of the drug in the incubation system with respect to the incubation time was plotted by using Excel software, linear regression was performed to obtain a slope k, and the half-life T1/2 (min) and the intrinsic clearance CLint (mL/min/kg) value were calculated according to the following formula: […]
On the technique in general: Microsomes from liver hold many membrane-bound enzymes, among them those of drug oxidation.

T1 sequence (Q12809 whole entry): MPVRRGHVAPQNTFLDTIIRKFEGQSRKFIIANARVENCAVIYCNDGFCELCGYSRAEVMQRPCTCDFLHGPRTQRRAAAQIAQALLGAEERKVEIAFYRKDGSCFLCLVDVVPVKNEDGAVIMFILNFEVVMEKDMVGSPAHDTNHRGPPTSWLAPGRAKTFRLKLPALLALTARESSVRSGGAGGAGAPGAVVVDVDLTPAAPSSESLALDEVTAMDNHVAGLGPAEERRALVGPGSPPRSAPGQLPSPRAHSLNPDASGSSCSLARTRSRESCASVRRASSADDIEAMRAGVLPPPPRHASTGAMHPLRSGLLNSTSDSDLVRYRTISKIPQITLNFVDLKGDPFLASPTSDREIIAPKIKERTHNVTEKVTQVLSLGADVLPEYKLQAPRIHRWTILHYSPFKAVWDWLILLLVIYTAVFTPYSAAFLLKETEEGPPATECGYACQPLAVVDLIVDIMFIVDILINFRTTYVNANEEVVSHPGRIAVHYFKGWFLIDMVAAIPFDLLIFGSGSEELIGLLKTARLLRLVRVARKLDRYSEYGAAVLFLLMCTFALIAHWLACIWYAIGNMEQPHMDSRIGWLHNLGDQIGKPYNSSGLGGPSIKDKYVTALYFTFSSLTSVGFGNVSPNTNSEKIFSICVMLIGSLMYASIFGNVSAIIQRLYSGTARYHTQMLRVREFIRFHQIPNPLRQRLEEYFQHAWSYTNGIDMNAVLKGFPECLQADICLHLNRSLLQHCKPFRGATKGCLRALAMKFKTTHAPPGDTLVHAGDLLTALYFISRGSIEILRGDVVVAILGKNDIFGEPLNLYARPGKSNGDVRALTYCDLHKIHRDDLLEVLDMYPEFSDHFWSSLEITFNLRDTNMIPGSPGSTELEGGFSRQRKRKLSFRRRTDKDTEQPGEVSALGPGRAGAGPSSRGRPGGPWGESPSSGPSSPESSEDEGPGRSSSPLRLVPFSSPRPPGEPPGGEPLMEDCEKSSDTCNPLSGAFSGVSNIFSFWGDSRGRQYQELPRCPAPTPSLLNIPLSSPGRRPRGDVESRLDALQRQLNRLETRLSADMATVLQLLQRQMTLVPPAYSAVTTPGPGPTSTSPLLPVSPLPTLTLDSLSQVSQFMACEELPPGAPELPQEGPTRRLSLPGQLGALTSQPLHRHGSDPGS
T2 sequence (P28223 whole entry): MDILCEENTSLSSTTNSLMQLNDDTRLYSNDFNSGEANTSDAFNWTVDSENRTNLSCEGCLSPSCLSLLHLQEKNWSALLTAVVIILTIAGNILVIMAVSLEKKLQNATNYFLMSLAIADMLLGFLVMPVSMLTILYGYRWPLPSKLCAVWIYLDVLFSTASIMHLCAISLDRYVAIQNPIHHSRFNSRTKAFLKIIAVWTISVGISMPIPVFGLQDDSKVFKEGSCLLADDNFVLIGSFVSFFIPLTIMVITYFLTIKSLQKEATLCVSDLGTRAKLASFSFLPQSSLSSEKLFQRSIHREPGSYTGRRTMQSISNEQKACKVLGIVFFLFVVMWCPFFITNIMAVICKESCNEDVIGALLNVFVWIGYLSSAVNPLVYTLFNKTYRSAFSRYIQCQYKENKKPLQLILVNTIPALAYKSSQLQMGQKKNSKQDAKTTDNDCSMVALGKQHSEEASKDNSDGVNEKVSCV
human recombinant D2L receptor, sequence (P14416 whole entry): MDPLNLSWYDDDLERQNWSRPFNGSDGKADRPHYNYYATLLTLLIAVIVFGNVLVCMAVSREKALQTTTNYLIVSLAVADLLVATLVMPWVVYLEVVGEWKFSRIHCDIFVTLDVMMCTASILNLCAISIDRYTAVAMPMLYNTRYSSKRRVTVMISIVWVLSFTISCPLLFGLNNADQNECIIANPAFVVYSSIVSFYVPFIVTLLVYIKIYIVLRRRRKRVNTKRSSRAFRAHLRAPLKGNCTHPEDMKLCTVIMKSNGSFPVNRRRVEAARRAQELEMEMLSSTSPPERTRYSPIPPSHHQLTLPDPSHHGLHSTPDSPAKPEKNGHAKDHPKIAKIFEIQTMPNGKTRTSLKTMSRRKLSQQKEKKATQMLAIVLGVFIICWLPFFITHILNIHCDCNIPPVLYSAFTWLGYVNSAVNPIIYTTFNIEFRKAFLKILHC
human D3 receptor, sequence (P35462 whole entry): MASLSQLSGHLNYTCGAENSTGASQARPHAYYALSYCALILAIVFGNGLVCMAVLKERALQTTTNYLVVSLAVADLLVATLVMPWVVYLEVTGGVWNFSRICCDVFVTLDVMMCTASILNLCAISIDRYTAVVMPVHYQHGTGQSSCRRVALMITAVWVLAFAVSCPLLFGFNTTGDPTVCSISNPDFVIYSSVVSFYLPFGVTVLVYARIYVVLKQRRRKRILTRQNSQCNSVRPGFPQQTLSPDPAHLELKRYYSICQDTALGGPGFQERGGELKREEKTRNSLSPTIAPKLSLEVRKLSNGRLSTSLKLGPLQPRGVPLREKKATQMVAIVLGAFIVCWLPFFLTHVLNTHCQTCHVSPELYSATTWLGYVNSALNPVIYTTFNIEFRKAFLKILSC
T4 sequence (P31645 whole entry): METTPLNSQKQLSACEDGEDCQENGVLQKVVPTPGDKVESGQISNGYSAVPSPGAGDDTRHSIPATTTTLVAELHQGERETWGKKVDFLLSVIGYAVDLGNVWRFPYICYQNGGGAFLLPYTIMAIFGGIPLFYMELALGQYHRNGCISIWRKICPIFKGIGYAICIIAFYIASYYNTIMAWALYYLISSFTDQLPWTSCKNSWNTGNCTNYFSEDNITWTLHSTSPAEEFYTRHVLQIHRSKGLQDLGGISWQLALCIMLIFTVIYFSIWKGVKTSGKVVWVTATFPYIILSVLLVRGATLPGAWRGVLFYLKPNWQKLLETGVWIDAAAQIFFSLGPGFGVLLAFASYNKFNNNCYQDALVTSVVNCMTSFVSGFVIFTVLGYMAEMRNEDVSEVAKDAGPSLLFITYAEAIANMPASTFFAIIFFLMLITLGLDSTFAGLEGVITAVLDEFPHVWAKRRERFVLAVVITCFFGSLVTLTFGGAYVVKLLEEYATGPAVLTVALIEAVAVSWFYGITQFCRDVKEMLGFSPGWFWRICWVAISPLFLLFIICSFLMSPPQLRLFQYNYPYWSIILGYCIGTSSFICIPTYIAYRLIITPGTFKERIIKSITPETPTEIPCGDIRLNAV

What is called solubility is how much of the substance goes into solution per volume. Usually IC50 stands for the concentration at which inhibition is half-maximal. Consider `O=C1CCc2ccc(CCN3CCN(c4cc(F)cc5sccc45)CC3)cc2N1` [Compound 1-a, 7-(2-(4-(6-fluorophenothiophen-4-yl)piperazin-1-yl)ethyl)-3,4-dihydroquinolin-2(1H)-one, reference compound], for which the solubility at 2 h in [1] amounted to 22.4 mg/mL (≈ 54.6 mM). Besides, the IC50 stood at 4.4 nM in [2], 920 nM on hERG potassium channel and 33 nM in data set [3].
In general, EC50 refers to the concentration giving half of the maximal effect. On to `O=C1CCc2ccc(CCN3CCN(c4cc(F)cc5sccc45)CC3)cc2N1CO` [Compound 1], for which the values for the EC50 (at human D3 receptor; in data set [4]) were 7.1 nM and 0.7 nM, respectively. Further, the IC50 turned out to be 3.5 nM in data set [2], 13 nM at human SERT, 1810 nM on hERG potassium channel and 32 nM in [3].
In the case of `CCCCCCCCCCCCCCCC(=O)OCN1C(=O)CCc2ccc(CCN3CCN(c4cc(F)cc5sccc45)CC3)cc21` [Compound 8, (7-(2-(4-(6-fluorobenzo[b]thiophen-4-yl)piperazin-1-yl)ethyl)-2-oxo-3,4-dihydroquinolin-1(2H)-yl)methyl palmitate], the solubility at 2 h in data set [1] was above 200 mg/mL. The “Fluctuation in the plasma concentration of the active metabolite (compound 1)” value in data set [5] is recorded as “minimal fluctuation”. Also, the “Metabolic stability in human liver microsomes (in words)” value in [6] (human liver microsomes) is listed as “good metabolic stability”. Moreover, in data set [6] (pH 7.41, human liver microsomes 0.5 mg/mL, compound 1 μM, NADPH 2 mM, read-out: Half-life (t1/2, min)), the half-life at 1 μM is above 120 min.
